Data as given in the supplement of paper PMC11061612.

How the values were obtained:
[1] = compound: CCc1c2c(nc3ccc(O)cc13)-c1cc3c(c(=O)n1C2)COC(=O)[C@]3(O)CC [SN-38]; settings: max 0.3 µM
Outline: (§1)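 Cancer cell lines were seeded in 1536-well plates in 7.5 μl DMEM/F12 or RPMI with 10% FBS, held 24 hours at 37°C and 5% CO2, then dosed for 72 hours (final DMSO typically 0.2%). Viability was read by CellTiter-Glo 2.0 luminescence and scaled between blank-well and DMSO-well means. The single-agent IC50 comes from dose responses fitted to a two-parameter logistic curve with a non-linear mixed effects model.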

[2] = compound: CCN(CCO)CCCOc1ccc2c(Nc3cc(CC(=O)Nc4cccc(F)c4)[nH]n3)ncnc2c1 [AZD2811]; settings: max 1 µM
Outline: as §1

[3] = compound: CN(C)CCCOc1ccc(-c2ccc3ncc4c(c3c2)n(C2CCOCC2)c(=O)n4C)cn1 [AZD0156]; settings: max 3 µM
Outline: as §1

[4] = compound: Cc1cc2ncnn2cc1Nc1ncc2c(n1)n(C1CCOCC1)c(=O)n2C [AZD7648]; settings: max 10 µM
Outline: as §1

[5] = compound: COc1cc2ncnc(Nc3ccc(F)c(Cl)c3)c2cc1OCCCN1CCOCC1 [Gefitinib]; settings: max 10 µM
Outline: as §1

[6] = compound: C[C@@H](Nc1cc(F)cc(F)c1)c1cc(C(=O)N(C)C)cc2c(=O)cc(N3CCOCC3)oc12 [AZD8186]; settings: max 3 µM
Outline: as §1

[7] = compound: CC(=O)c1c(C)c2cnc(Nc3ccc(N4CCNCC4)cn3)nc2n(C2CCCC2)c1=O [Palbociclib]; settings: max 10 µM
Outline: as §1

[8] = compound: CC(=O)Nc1cccc(-n2c(=O)n(C3CC3)c(=O)c3c(Nc4ccc(I)cc4F)n(C)c(=O)c(C)c32)c1 [Trametinib]; settings: max 1 µM
Outline: as §1

[9] = compound: C[C@@H](Oc1cc(-c2cnn(C3CCNCC3)c2)cnc1N)c1c(Cl)ccc(F)c1Cl [Crizotinib]; settings: max 10 µM
Outline: as §1

[10] = compound: Cc1c2c(nn1C)CSCc1cc(n(C)n1)CSc1cc(c3ccccc3c1)OCCCc1c(C(=O)O)n(C)c3c-2c(Cl)ccc13 [AZD5991]; settings: max 1 µM
Outline: as §1

[11] = compound: C[C@@H](c1ccc2nccn2c1)n1nnc2ncc(-c3cnn(C)c3)nc21 [Savolitinib]; settings: max 1 µM
Outline: as §1

[12] = compound: O=C(c1cc(Cc2n[nH]c(=O)c3ccccc23)ccc1F)N1CCN(C(=O)C2CC2)CC1 [Olaparib]; settings: max 10 µM
Outline: as §1

[13] = compound: C=CCn1c(=O)c2cnc(Nc3ccc(N4CCN(C)CC4)cc3)nc2n1-c1cccc(C(C)(C)O)n1 [AZD1775]; settings: max 3 µM
Outline: as §1

[14] = compound: COc1nnc2ccc(N3CCC(c4ccc(OCCN5CCN(C)C(=O)[C@H]5C)cc4)CC3)nn12 [AZD5153]; settings: max 1 µM
Outline: as §1

[15] = compound: CN(CC[C@H](CSC1=CC=CC=C1)NC2=C(C=C(C=C2)S(=O)(=O)NC(=O)C3=CC=C(C=C3)N4CCC(CC4)[C@H](C5=CC=CC=C5C6=CC=C(C=C6)Cl)O)S(=O)(=O)C(F)(F)F)CCO [AZD4320]; settings: max 1 µM
Outline: as §1

[16] = compound: CC1(C)CCC(CN2CCN(c3ccc(C(=O)NS(=O)(=O)c4ccc(NCC5CCOCC5)c([N+](=O)[O-])c4)c(Oc4cnc5[nH]ccc5c4)c3)CC2)=C(c2ccc(Cl)cc2)C1 [Venetoclax]; settings: max 1 µM
Outline: as §1

[17] = compound: CS(=O)(=O)CCNCc1ccc(-c2ccc3ncnc(Nc4ccc(OCc5cccc(F)c5)c(Cl)c4)c3c2)o1 [Lapatinib]; settings: max 10 µM
Outline: as §1

[18] = compound: C[C@@H]1COCCN1C2=NC(=NC(=C2)C3(CC3)[S@](=N)(=O)C)C4=C5C=CNC5=NC=C4 [AZD6738]; settings: max 10 µM
Outline: as §1

[19] = compound: COc1cccc2c1C(=O)c1c(O)c3c(c(O)c1C2=O)C[C@@](O)(C(=O)CO)C[C@@H]3O[C@H]1C[C@H](N)[C@H](O)[C@H](C)O1 [Doxorubicin]; settings: max 1 µM
Outline: as §1

[20] = compound: CC(C)n1c(=O)n(C)c2cnc3cc(F)c(-c4ccc(OCCCN5CCCCC5)nc4)cc3c21 [AZD1390]; settings: max 0.3 µM
Outline: as §1

[21] = compound: CC1=CN2[C@@H](C1)C=NC3=CC(=C(C=C3C2=O)OC)OCCCCCOC4=C(C=C5C(=C4)N=C[C@@H]6CC(=CN6C5=O)C)OC [SG3199]; settings: max 0.001 µM
Outline: as §1

[22] = compound: CC1=C(C(=CC=C1)Cl)NC(=O)C2=CN=C(S2)NC3=CC(=NC(=N3)C)N4CCN(CC4)CCO [Dasatinib]; settings: max 2 µM
Outline: as §1

[23] = compound: Cc1nc(-c2cn3c(n2)-c2ccc(-c4cnn(C(C)(C)C(N)=O)c4)cc2OCC3)n(C(C)C)n1 [Taselisib]; settings: max 10 µM
Outline: as §1

[24] = compound: C1CN(CCC1(C(=O)N[C@@H](CCO)C2=CC=C(C=C2)Cl)N)C3=NC=NC4=C3C=CN4 [Capivasertib]; settings: max 10 µM
Outline: as §1

[25] = compound: COc1cc(Nc2ncc3c(n2)-c2ccc(Cl)cc2C(c2c(F)cccc2OC)=NC3)ccc1C(=O)O [Alisertib]; settings: max 10 µM
Outline: as §1

[26] = compound: COc1cccc(OCCCN)c1-c1cc(Nc2cnc(C#N)cn2)n[nH]1 [Prexasertib]; settings: max 1 µM
Outline: as §1

[27] = compound: Cn1cnc2c(F)c(Nc3ccc(Br)cc3Cl)c(C(=O)NOCCO)cc21 [Selumetinib]; settings: max 10 µM
Outline: as §1

| Cell Line | IC50, cell viability 72 h [1] [nM] | IC50, cell viability 72 h [2] [nM] | IC50, cell viability 72 h [3] [nM] | IC50, cell viability 72 h [4] [nM] | IC50, cell viability 72 h [5] [nM] | IC50, cell viability 72 h [6] [nM] | IC50, cell viability 72 h [7] [nM] | IC50, cell viability 72 h [8] [nM] | IC50, cell viability 72 h [9] [nM] | IC50, cell viability 72 h [10] [nM] | IC50, cell viability 72 h [11] [nM] | IC50, cell viability 72 h [12] [nM] | IC50, cell viability 72 h [13] [nM] | IC50, cell viability 72 h [14] [nM] | IC50, cell viability 72 h [15] [nM] | IC50, cell viability 72 h [16] [nM] | IC50, cell viability 72 h [17] [nM] | IC50, cell viability 72 h [18] [nM] | IC50, cell viability 72 h [19] [nM] | IC50, cell viability 72 h [20] [nM] | IC50, cell viability 72 h [21] [nM] | IC50, cell viability 72 h [22] [nM] | IC50, cell viability 72 h [23] [nM] | IC50, cell viability 72 h [24] [nM] | IC50, cell viability 72 h [25] [nM] | IC50, cell viability 72 h [26] [nM] | IC50, cell viability 72 h [27] [nM] |
| --- | --- | --- | --- | --- | --- | --- | --- | --- | --- | --- | --- | --- | --- | --- | --- | --- | --- | --- | --- | --- | --- | --- | --- | --- | --- | --- | --- |
| AM-38 (Glioblastoma) | 22.7 | > 1000 | > 3000 | > 10000 | > 10000 | > 3000 | > 10000 | 71.7 | > 10000 | > 1000 | > 1000 | > 10000 | 2610 | > 1000 | > 1000 | > 1000 | > 10000 | 4800 | 694 | > 300 | > 1 | > 2000 | > 10000 | > 10000 | > 10000 | 126 | 3750 |
| BHT-101 (Thyroid Gland Carcinoma) | 30.9 | > 1000 | > 3000 | > 10000 | > 10000 | > 3000 | 9120 | 18.2 | 8670 | > 1000 | > 1000 | > 10000 | > 3000 | 60.1 | > 1000 | > 1000 | > 10000 | 9260 | > 1000 | > 300 | > 1 | 1100 | 6450 | > 10000 | 1850 | 293 | 1360 |
| CL-11 (Colorectal Carcinoma) | 57.9 | > 1000 | > 3000 | > 10000 | > 10000 | > 3000 | > 10000 | 33.5 | > 10000 | > 1000 | > 1000 | > 10000 | 859 | 224 | > 1000 | > 1000 | > 10000 | 3040 | > 1000 | > 300 | > 1 | > 2000 | > 10000 | > 10000 | 527 | 90.3 | 1060 |
| DBTRG-05MG (Glioblastoma) | > 300 | > 1000 | > 3000 | > 10000 | > 10000 | > 3000 | > 10000 | > 1000 | > 10000 | > 1000 | > 1000 | > 10000 | > 3000 | > 1000 | > 1000 | > 1000 | > 10000 | > 10000 | > 1000 | > 300 | > 1 | > 2000 | > 10000 | > 10000 | > 10000 | > 1000 | > 10000 |
| HT-1080 (Other Solid Carcinomas) | > 300 | > 1000 | > 3000 | > 10000 | > 10000 | > 3000 | > 10000 | > 1000 | > 10000 | > 1000 | > 1000 | > 10000 | > 3000 | > 1000 | 721 | > 1000 | > 10000 | > 10000 | > 1000 | > 300 | > 1 | > 2000 | > 10000 | > 10000 | > 10000 | 536 | > 10000 |
| MM1S (Plasma Cell Myeloma) | 10.1 | > 1000 | 1690 | > 10000 | > 10000 | > 3000 | > 10000 | > 1000 | 6080 | 325 | > 1000 | > 10000 | 720 | 347 | 153 | > 1000 | > 10000 | 9520 | 459 | > 300 | > 1 | > 2000 | 207 | 545 | > 10000 | 30.1 | > 10000 |
| MOLP-8 (Plasma Cell Myeloma) | 48.4 | > 1000 | 1740 | > 10000 | > 10000 | > 3000 | > 10000 | > 1000 | 2650 | 48.5 | > 1000 | > 10000 | 465 | 49.5 | > 1000 | > 1000 | > 10000 | 3830 | 407 | > 300 | > 1 | > 2000 | 439 | 8910 | 5240 | 24.5 | > 10000 |
| MOLT-13 (T-Lymphoblastic Leukemia) | 3.85 | 42.7 | > 3000 | > 10000 | > 10000 | > 3000 | 5570 | 459 | 4260 | 52.8 | > 1000 | > 10000 | 440 | 35.7 | 33.8 | 416 | 5860 | 2370 | 467 | > 300 | > 1 | > 2000 | > 10000 | > 10000 | 177 | 16.5 | 5270 |
